Like-named read-outs stand apart in the source and are kept apart here.
Molecular target: BCL6 (Homo sapiens (Human), UniProt P41182)
Experiment: Immunofluorescence high content imaging of BCL6 degradation in T47D cells
Assay type: cell-based
Conditions: for DC50: class symbols A-D, read-out: EC50 (nM)*
Summary of the method: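 T47D cells were treated for 3 days at 37 °C with 11-point 3-fold dilutions of bifunctional degrader (final top 0.1 or 1 μM). BCL6 was detected by immunofluorescence after PFA fixation, with Hoechst and cell mask counterstains, and imaged at 10×, 4 fields/well.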

Q: Which DC50 does the source give for `CNC(=O)COc1cc2cc(Nc3nc(N4CCC(OCCOCCOCCOCC(=O)N[C@H](C(=O)N5C[C@H](O)C[C@H]5C(=O)NCc5ccc(-c6scnc6C)cc5)C(C)(C)C)CC4)ncc3Cl)ccc2n(C)c1=O` [compound 51, (2S,4R)-1-((S)-2-(tert-butyl)-14-((1-(5-chloro-4-((1-methyl-3-(2-(methylamino)-2-oxoethoxy)-2-oxo-1,2-dihydroquinolin-6-yl)amino)pyrimidin-2-yl)piperidin-4-yl)oxy)-4-oxo-6,9,12-trioxa-3-azatetradecanoyl)-4-hydroxy-N-(4-(4-methylthiazol-5-yl)benzyl)pyrrolidine-2-carboxamide] here?
A: > 100 nM

Q: `CNC(=O)COc1cc2cc(Nc3nc(N4CCC(OCCOCCOCCOCCOc5ccccc5Oc5ccc6c(c5)CN(C5CCC(=O)NC5=O)C6=O)CC4)ncc3Cl)ccc2n(C)c1=O` (stereo not drawn) [compound 134, 2-((6-((5-chloro-2-(4-(2-(2-(2-(2-(2-((2-(2,6-dioxopiperidin-3-yl)-1-oxoisoindolin-5-yl)oxy)phenoxy)ethoxy)ethoxy)ethoxy)ethoxy)piperidin-1-yl)pyrimidin-4-yl)amino)-1-methyl-2-oxo-1,2-dihydroquinolin-3-yl)oxy)-N-methylacetamide] was tested. Which DC50 did it give?
A: > 100 nM

Q: With `CNC(=O)COc1cc2cc(Nc3nc(N4CCC(CN5CC6(CCN(c7cccc(C(=O)NC8CCC(=O)NC8=O)c7F)CC6)C5)CC4)ncc3Cl)ccc2n(C(C)C)c1=O` (stereo not drawn) [compound 440, 3-[2-({1-[5-chloro-4-({3-[(methylcarbamoyl)methoxy]-2-oxo-1-(propan-2-yl)-1,2-dihydroquinolin-6-yl}amino)pyrimidin-2-yl]piperidin-4-yl}methyl)-2,7-diazaspiro[3.5]nonan-7-yl]-N-(2,6-dioxopiperidin-3-yl)-2-fluorobenzamide] as the compound, how does the Dmax (T47D cells) read?
A: ≥ 70%

Q: And the IC50 (T47D cells)?
A: < 10 nM

Q: With `CNC(=O)COc1cc2cc(Nc3nc(N4CCC(OCCOCCOCCOc5cc(-c6scnc6C)ccc5CNC(=O)[C@@H]5C[C@@H](O)CN5C(=O)[C@H](c5cc(C)no5)C(C)C)CC4)ncc3Cl)ccc2n(C)c1=O` [compound 49, (2S,4R)-N-(2-(2-(2-(2-((1-(5-chloro-4-((1-methyl-3-(2-(methylamino)-2-oxoethoxy)-2-oxo-1,2-dihydroquinolin-6-yl)amino)pyrimidin-2-yl)piperidin-4-yl)oxy)ethoxy)ethoxy)ethoxy)-4-(4-methylthiazol-5-yl)benzyl)-4-hydroxy-1-((S)-3-methyl-2-(3-methylisoxazol-5-yl)butanoyl)pyrrolidine-2-carboxamide] as the compound, how does the DC50 read?
A: > 100 nM

Q: `CNC(=O)COc1cc2cc(Nc3nc(N4CCC(OC5CCC6(CC5)CN(c5ccc7c(c5)C(=O)N(C5CCC(=O)NC5=O)C7=O)C6)CC4)ncc3Cl)ccc2n(C(C)C)c1=O` (stereo not drawn) [compound 421, 2-{[6-({5-chloro-2-[4-({2-[2-(2,6-dioxopiperidin-3-yl)-1,3-dioxo-2,3-dihydro-1H-isoindol-5-yl]-2-azaspiro[3.5]nonan-7-yl}oxy)piperidin-1-yl]pyrimidin-4-yl}amino)-2-oxo-1-(propan-2-yl)-1,2-dihydroquinolin-3-yl]oxy}-N-methylacetamide] was tested. Which Dmax (T47D cells) did it give?
A: ≥ 70%

Q: And the IC50 (T47D cells)?
A: < 10 nM

Q: `CNC(=O)COc1cc2cc(Nc3nc(N4CCC5(CC4)CC(OC4CCN(c6ccc7c(c6)C(=O)N(C6CCC(=O)NC6=O)C7=O)CC4)C5)ncc3Cl)ccc2n(C(C)C)c1=O` (stereo not drawn) [compound 392, 2-{[6-({5-chloro-2-[2-({1-[2-(2,6-dioxopiperidin-3-yl)-1,3-dioxo-2,3-dihydro-1H-isoindol-5-yl]piperidin-4-yl}oxy)-7-azaspiro[3.5]nonan-7-yl]pyrimidin-4-yl}amino)-2-oxo-1-(propan-2-yl)-1,2-dihydroquinolin-3-yl]oxy}-N-methylacetamide] was tested. Which IC50 (T47D cells) did it give?
A: ≥ 100 nM

Q: With `CNC(=O)COc1cc2cc(Nc3nc(N4CCN(CC5(F)CCN(c6ccc7c(c6)C(=O)N(C6CCC(=O)NC6=O)C7=O)CC5)CC4)ncc3Cl)ccc2n(C)c1=O` (stereo not drawn) [compound 339, 2-{[6-({5-chloro-2-[4-({1-[2-(2,6-dioxopiperidin-3-yl)-1,3-dioxo-2,3-dihydro-1H-isoindol-5-yl]-4-fluoropiperidin-4-yl}methyl)piperazin-1-yl]pyrimidin-4-yl}amino)-1-methyl-2-oxo-1,2-dihydroquinolin-3-yl]oxy}-N-methylacetamide] as the compound, how does the Dmax (T47D cells) read?
A: 50 to 70%

Q: And the IC50 (T47D cells)?
A: < 10 nM

Q: For `CN1CC[C@H](Oc2cc3cc(Nc4nc(N5CCC(CN6CCN(c7ccc8c(c7)C(=O)N(C7CCC(=O)NC7=O)C8=O)CC6)CC5)ncc4Cl)ccc3n(C)c2=O)C1=O` (stereo partly drawn) [compound 259, 5-(4-((1-(5-chloro-4-((1-methyl-3-(((S)-1-methyl-2-oxopyrrolidin-3-yl)oxy)-2-oxo-1,2-dihydroquinolin-6-yl)amino)pyrimidin-2-yl)piperidin-4-yl)methyl)piperazin-1-yl)-2-(2,6-dioxopiperidin-3-yl)isoindoline-1,3-dione], which IC50 is on record?
A: ≥ 100 nM

Q: What about the Dmax (T47D) of the same compound?
A: < 50%

Q: Which results are given for `CNC(=O)COc1cc2cc(Nc3nc(N4CCC5(CC4)CN(CC4CCN(c6cccc7c6CN(C6CCC(=O)NC6=O)C7=O)CC4)C5)ncc3Cl)ccc2n(C(C)C)c1=O` (stereo not drawn) [compound 443, 2-{[6-({5-chloro-2-[2-({1-[2-(2,6-dioxopiperidin-3-yl)-1-oxo-2,3-dihydro-1H-isoindol-4-yl]piperidin-4-yl}methyl)-2,7-diazaspiro[3.5]nonan-7-yl]pyrimidin-4-yl}amino)-2-oxo-1-(propan-2-yl)-1,2-dihydroquinolin-3-yl]oxy}-N-methylacetamide]?
A: Dmax (T47D cells): 50 to 70%; IC50 (T47D cells): < 10 nM

Q: `CNC(=O)COc1cc2cc(Nc3nc(N4CCC(OCCCCOc5ccc6c(c5)CN(C5CCC(=O)NC5=O)C6=O)CC4)ncc3Cl)ccc2n(C)c1=O` (stereo not drawn) [compound 142, 2-((6-((5-chloro-2-(4-(4-((2-(2,6-dioxopiperidin-3-yl)-1-oxoisoindolin-5-yl)oxy)butoxy)piperidin-1-yl)pyrimidin-4-yl)amino)-1-methyl-2-oxo-1,2-dihydroquinolin-3-yl)oxy)-N-methylacetamide] was tested. Which DC50 did it give?
A: > 100 nM

Q: With `CNC(=O)COc1cc2cc(Nc3nc(N4CCC(CN5CCC(c6nc(C(=O)NC7CCC(=O)NC7=O)cs6)CC5)CC4)ncc3Cl)ccc2n(C)c1=O` (stereo not drawn) [compound 360, 2-[1-({1-[5-chloro-4-({1-methyl-3-[(methylcarbamoyl)methoxy]-2-oxo-1,2-dihydroquinolin-6-yl}amino)pyrimidin-2-yl]piperidin-4-yl}methyl)piperidin-4-yl]-N-(2,6-dioxopiperidin-3-yl)-1,3-thiazole-4-carboxamide] as the compound, how does the Dmax (T47D cells) read?
A: 50 to 70%

Q: What about the IC50 (T47D cells) of the same compound?
A: 10 to 50 nM

Q: Which Dmax (T47D cells) does the source give for `CNC(=O)COc1cc2cc(Nc3nc(N4CCC(F)(CN5CCN(c6ccc(C(=O)NC7CCC(=O)NC7=O)c(OC)c6)CC5)CC4)ncc3Cl)ccc2n(C)c1=O` (stereo not drawn) [compound 366, 4-[4-({1-[5-chloro-4-({1-methyl-3-[(methylcarbamoyl)methoxy]-2-oxo-1,2-dihydroquinolin-6-yl}amino)pyrimidin-2-yl]-4-fluoropiperidin-4-yl}methyl)piperazin-1-yl]-N-(2,6-dioxopiperidin-3-yl)-2-methoxybenzamide] here?
A: 50 to 70%

Q: What about the IC50 (T47D cells) of the same compound?
A: < 10 nM

Q: Which Dmax (T47D cells) does the source give for `CNC(=O)COc1cc2cc(Nc3nc(N4CCN(CC5CCN(c6cccc(C(=O)NC7CCC(=O)NC7=O)c6OC)CC5)CC4)ncc3Cl)ccc2n(C)c1=O` (stereo not drawn) [compound 325, 3-[4-({4-[5-chloro-4-({1-methyl-3-[(methylcarbamoyl)methoxy]-2-oxo-1,2-dihydroquinolin-6-yl}amino)pyrimidin-2-yl]piperazin-1-yl}methyl)piperidin-1-yl]-N-(2,6-dioxopiperidin-3-yl)-2-methoxybenzamide] here?
A: 50 to 70%

Q: What about the IC50 (T47D cells) of the same compound?
A: < 10 nM

Q: How did the Dmax (T47D cells) turn out when `CNC(=O)COc1cc2cc(Nc3nc(N4CCN(CC5CCN(C(=O)c6ccc(OC)c(N7CCC(=O)NC7=O)c6)CC5)CC4)ncc3Cl)ccc2n(C(C)C)c1=O` [compound 401, 2-{[6-({5-chloro-2-[4-({1-[3-(2,4-dioxo-1,3-diazinan-1-yl)-4-methoxybenzoyl]piperidin-4-yl}methyl)piperazin-1-yl]pyrimidin-4-yl}amino)-2-oxo-1-(propan-2-yl)-1,2-dihydroquinolin-3-yl]oxy}-N-methylacetamide] was run?
A: < 50%

Q: And the IC50 (T47D cells)?
A: < 10 nM

Q: `CNC(=O)COc1cc2cc(Nc3nc(N4CCN(C(C)(C)C5CCN(c6cc(OC)cc(C(=O)NC7CCC(=O)NC7=O)c6F)CC5)CC4)ncc3Cl)ccc2n(C)c1=O` (stereo not drawn) [compound 356, 3-[4-(2-{4-[5-chloro-4-({1-methyl-3-[(methylcarbamoyl)methoxy]-2-oxo-1,2-dihydroquinolin-6-yl}amino)pyrimidin-2-yl]piperazin-1-yl}propan-2-yl)piperidin-1-yl]-N-(2,6-dioxopiperidin-3-yl)-2-fluoro-5-methoxybenzamide] was tested. Which Dmax (T47D cells) did it give?
A: ≥ 70%

Q: What about the IC50 (T47D cells) of the same compound?
A: < 10 nM

Q: For `CNC(=O)COc1cc2cc(Nc3nc(N4CCC(c5ccccc5OCCCOCCOCCOCCOc5ccc6c(c5)CN(C5CCC(=O)NC5=O)C6=O)CC4)ncc3Cl)ccc2n(C)c1=O` (stereo not drawn) [compound 90, 2-((6-((5-chloro-2-(4-(2-(3-(2-(2-(2-((2-(2,6-dioxopiperidin-3-yl)-1-oxoisoindolin-5-yl)oxy)ethoxy)ethoxy)ethoxy)propoxy)phenyl)piperidin-1-yl)pyrimidin-4-yl)amino)-1-methyl-2-oxo-1,2-dihydroquinolin-3-yl)oxy)-N-methylacetamide], which DC50 is on record?
A: > 100 nM

Q: How did the DC50 turn out when `CNC(=O)COc1cc2cc(Nc3nc(N4CCC(OCCOCCOCCCCOc5ccc(-c6ccc7c(c6)CN(C6CCC(=O)NC6=O)C7=O)cc5)CC4)ncc3Cl)ccc2n(C)c1=O` (stereo not drawn) [compound 94, 2-((6-((5-chloro-2-(4-(2-(2-(4-(4-(2-(2,6-dioxopiperidin-3-yl)-1-oxoisoindolin-5-yl)phenoxy)butoxy)ethoxy)ethoxy)piperidin-1-yl)pyrimidin-4-yl)amino)-1-methyl-2-oxo-1,2-dihydroquinolin-3-yl)oxy)-N-methylacetamide] was run?
A: > 100 nM

Reference: US12310975B2, “Modulators of BCL6 proteolysis and associated methods of use” (Arvinas Operations, Inc., priority 2019, dated 2025)
